# Patent publication US10125184B2, “Apolipoprotein E polypeptides and their use” (priority 2011, dated 2018)
# How the values were obtained:
# Huh7.5.1 cells = assay: Cytotoxicity/cell viability assay (CellTiter-Glo); format: cell-based; conditions: 48 hours; hEP up to 100 μg/ml (~14 μM)
# Protocol: FIGS. 1A-1C. A human apoE derived peptide (hEP) suppresses HCV infection. (A) Schematic illustration of apoE protein domains and the amino acid sequences of hEP and mEP peptides. The amino acid sequences shown are hEP-1 (SEQ ID NO: 6) and mEP (SEQ ID NO: 20). (B) Dose dependent inhibition of HCVcc infection by hEP. Huh7.5.1 cells were infected with JFH-1 HCVcc-Luc (MOI˜0.5) in the presence of hEP or mEP for 2 hours. After removal of virus and peptides, cells were further incubated for 48 hours prior to luciferase assay. Data are presented as % inhibition relative to control infections in which cells were treated with DMSO (0%). Results are expressed as mean±standard deviation (s.d.) (n=3). (C). Huh7.5.1 cells were treated with hEP or DMSO at indicated doses for 48 hours. The effect of hEP on cell viability was measured by a CellTiter Glo assay kit.
# Huh7.5.1 cells (10^5 per well) were treated with hEP or DMSO at various concentrations for 48 hours in 24-well plates. The numbers of viable cells in culture were determined using the CELLTITER-GLO® Cell Viability Luminescent Assay kit according to the manufacturer's instruction (Promega).
# HCVcc-luc [1] = assay: Attachment versus post-attachment inhibition assay; format: cell-based, Hepatitis C virus; conditions: heparin 200 μg/ml, anti-CD81 5 μg/ml, hEP 20 μg/ml, bafilomycin A1 10 nM
# Protocol: (§1) FIGS. 5A-5D. hEP inhibits HCV entry at the attachment step. (A) HCVcc-luc was first mixed with either scrambled peptide or hEP-2 (20 μg/ml) for one hour at room temperature. In Group 1, mixed virus was directly added to Huh7.5.1 cells, whereas in Group 2, virus was purified through ultracentrifuge at 28,000×g for 4 hours in order to remove peptide, and then used to infect Huh7.5.1 cells. **p<0.005. (B) The kinetics of hEP- and bafilomycin A1-mediated inhibition were determined by time-of-addition assays, as described in the examples section. Fitted lines represent sigmoidal time-dependent curves (mean of n=3; error bars, s.d.). (C) HCVcc-Luc was added to Huh7.5.1 cells at 4° C. and incubated for 1.5 hrs. Unbound virus was removed by 2 washes with cold media, fresh media was added, and the cells were shifted to 37° C. to allow synchronous infection to proceed. Heparin (200 μg/ml), anti-CD81 monoclonal antibody (5 μg/ml), hEP (20 μg/ml), or bafilomycin A1 (10 nM) were present in the media either continuously, during the 4° C. incubation only (attachment), or during the 37° C. incubation phase only (post-attachment). % Inhibition was calculated as 100-percent infection relative to control infections containing DMSO or an isotype antibody control containing 0.01% sodium azide (for anti-CD81 only) (mean of n=3; error bars, s.d.). (D) The effects of hEP (2.7 μM) or scrambled peptide on HCV binding were determined as described in the examples section. Results were calculated as relative RNA copies with numbers obtained from the scrambled peptide treated wells set to 100 (mean of n=3; error bars, s.d.). **p<0.005.
# To investigate the mechanistic action of hEP, three sets of experiments were conducted. First, hEP-2 (SEQ ID NO: 9) or scrambled peptide-treated HCVcc were purified through ultracentrifugation to remove the peptide and then used to infect naïve Huh7.5.1 cells. […] Second, to determine the kinetics of inhibition, a time-of-addition experiment was conducted. HCV remained sensitive to bafilomycin A1, a fusion inhibitor that prevents endosome acidification, until 3 hours after the 37° C. temperature shift (FIG. 5B), which is consistent with previous reports (Koutsoudakis et al., J Virol 2006; 80:5308-5320). […] In order to determine whether hEP-2 (SEQ ID NO: 9) blocks infection at the initial attachment step or a downstream event in the HCV entry process, hEP-2 (SEQ ID NO: 9) was either added together with HCVcc to cells during the 4° C. attachment step only, and then removed prior to shifting the temperature to 37° C., or added only after the temperature shift. As a positive control, hEP-1 was present during the entire course of the experiment. […] Finally, the direct binding of virions to cell surface was measured using a real-time PCR based assay.
# HCVcc-luc [2] = assay: Time-of-addition assay; format: cell-based, Hepatitis C virus; conditions: 10 nM bafilomycin A1
# Protocol: as §1, with “bars, s.d.). […] Heparin (200” for “bars, s.d.). (C) HCVcc-Luc was added to Huh7.5.1 cells at 4° C. and incubated for 1.5 hrs. Unbound virus was removed by 2 washes with cold media, fresh media was added, and the cells were shifted to 37° C. to allow synchronous infection to proceed. Heparin (200”, “s.d.). **p<0.005. […]” for “s.d.). **p<0.005.”
SMILES,Cytotoxicity (cell viability) (Huh7.5.1 cells),Inhibition when present after the temperature shift only (post-attachment) (HCVcc-luc [1]),Time after 37° C. temperature shift until which HCV remained sensitive (HCVcc-luc [2]) [h]
"C[C@H](N)C(=O)N[C@@H]1[C@H]2C(=C(O)C[C@@H](O)[C@@H]2O)C(=O)O[C@]1(C)C(Cl)Cl [Bactobolin, reference compound]",induced significant cell death,–,–
"CO/C1=C\C(C)=C\[C@@H](C)[C@@H](O)[C@@H](C)C/C(C)=C/C=C/[C@H](OC)[C@@H]([C@@H](C)[C@@H](O)[C@H](C)[C@@]2(O)C[C@@H](O)[C@H](C)[C@@H](C(C)C)O2)OC1=O [bafilomycin A1, reference compound]",–,most effective,≤ 3
